Test results reported in article PMC6395927, “Rufomycin Targets ClpC1 Proteolysis in Mycobacterium tuberculosis and M. abscessus” (Antimicrobial Agents and Chemotherapy, 2019).
In brackets after ≈: the same amount, converted by molar mass. Entries after “also recorded” stand apart in the source; their conditions may differ. Read-outs that look alike come from different tables or passages of the source.

Assays:
[1] = system: M. tuberculosis strain H37Rv (ATCC 27294); experiment: microbe, parasite or virus in culture; type: cell-based, Mycobacterium tuberculosis; details: Mycobacterium tuberculosis
[2] = system: M. tuberculosis 5 global clade representatives; experiment: microbe, parasite or virus in culture; type: cell-based; details: Mycobacterium tuberculosis, read-out: MICs
[3] = system: Candida albicans (ATCC 10231); experiment: MIC against nonmycobacteria (OD570); type: cell-based; details: ATCC10231, C. albicans
From the text: (§1) Standard compounds used were ampicillin (AMP) and gentamicin (GEN). […] Amphotericin B (AmphB) and ketoconazole (KETO) were used as standard compounds.

[4] = system: Escherichia coli (ATCC 25922); experiment: MIC against nonmycobacteria (OD570); type: cell-based; details: ATCC25922, E. coli
From the text: as §1

[5] = system: Staphylococcus aureus (ATCC 29213); experiment: MIC against nonmycobacteria (OD570); type: cell-based; details: ATCC29213, S. aureus
From the text: as §1

[6] = system: M. smegmatis (ATCC 700084); experiment: microbe, parasite or virus in culture; type: cell-based; details: Mycolicibacterium smegmatis, ATCC700084; M. smegmatis; read-out: MIC
[7] = system: M. abscessus (ATCC 19977); experiment: microbe, parasite or virus in culture; type: cell-based, Mycobacterium abscessus; details: read-out: MIC
M. chelonae (ATCC 35752) = experiment: microbe, parasite or virus in culture; type: cell-based, Mycobacterium chelonae; details: Mycobacteroides chelonae, ATCC35752; M. chelonae; read-out: MIC
M. marinum (ATCC 927) = experiment: microbe, parasite or virus in culture; type: cell-based; details: Mycobacterium marinum, ATCC927; M. marinum; read-out: MIC
M. bovis (ATCC 35734) = experiment: microbe, parasite or virus in culture; type: cell-based; details: Mycobacterium tuberculosis variant bovis, ATCC35734
M. kansasii (ATCC 12478) = experiment: microbe, parasite or virus in culture; type: cell-based; details: Mycobacterium kansasii, ATCC12478; M. kansasii; read-out: MIC
M. avium (ATCC 15769) = experiment: microbe, parasite or virus in culture; type: cell-based; details: Mycobacterium avium, ATCC15769; M. avium; read-out: MIC
Vero cell (ATCC CRL-81) = experiment: cells; type: cell-based; details: Chlorocebus sabaeus, 72 h
[8] = system: J774A.1 macrophage (ATCC TIB-67); experiment: Cytotoxicity in mammalian cells (resazurin); type: cell-based, murine; details: Mus musculus, J774.A1; J774, 72 h
[9] = system: nonreplicating cultures of M. tuberculosis; experiment: microbe, parasite or virus in culture; type: cell-based, Mycobacterium tuberculosis
[10] = system: M. tuberculosis Erdman (ATCC 35801) in J774A.1 macrophages; type: cell-based, Mycobacterium tuberculosis
[11] = system: M. abscessus in bone marrow-derived macrophages; experiment: Intracellular survival assay in BMDMs; type: cell-based, Mycobacterium abscessus; details: 2 days, 5 and 10 μM
Protocol: Bone marrow-derived macrophages (BMDMs) were isolated from the femurs and tibias of C57BL/6 mice (5 to 6 weeks old) and differentiated by culturing for 4 days in DMEM containing 10% (vol/vol) FBS and 25 ng/ml of macrophage colony-stimulating factor (M-CSF; R&D, Minneapolis, MN). The final densities of differentiated BMDMs were 1 × 10^5 to 3 × 10^5 per well in 48-well plates. Cells were infected for 2 h with M. abscessus at a multiplicity of infection (MOI) of 5. Next cells were washed with PBS and incubated in DMEM containing 50 μg/ml of gentamicin (Sigma-Aldrich). RUFI and clarithromycin (CLR) were added to the media to achieve final concentrations of 5 and 10 μM, respectively, and then the cultures were incubated for 2 days. The supernatant was removed, and cells were lysed in sterile distilled water for 30 min at 37°C. Cell lysates were serially diluted, plated on 7H10 agar, and incubated at 37°C for 2 to 3 days for enumeration of CFU.

ClpC1 = ClpC1 (Mycobacterium tuberculosis, UniProt P9WPC9); type: biochemical, M. tuberculosis
Sequence of ClpC1 (P9WPC9 whole entry): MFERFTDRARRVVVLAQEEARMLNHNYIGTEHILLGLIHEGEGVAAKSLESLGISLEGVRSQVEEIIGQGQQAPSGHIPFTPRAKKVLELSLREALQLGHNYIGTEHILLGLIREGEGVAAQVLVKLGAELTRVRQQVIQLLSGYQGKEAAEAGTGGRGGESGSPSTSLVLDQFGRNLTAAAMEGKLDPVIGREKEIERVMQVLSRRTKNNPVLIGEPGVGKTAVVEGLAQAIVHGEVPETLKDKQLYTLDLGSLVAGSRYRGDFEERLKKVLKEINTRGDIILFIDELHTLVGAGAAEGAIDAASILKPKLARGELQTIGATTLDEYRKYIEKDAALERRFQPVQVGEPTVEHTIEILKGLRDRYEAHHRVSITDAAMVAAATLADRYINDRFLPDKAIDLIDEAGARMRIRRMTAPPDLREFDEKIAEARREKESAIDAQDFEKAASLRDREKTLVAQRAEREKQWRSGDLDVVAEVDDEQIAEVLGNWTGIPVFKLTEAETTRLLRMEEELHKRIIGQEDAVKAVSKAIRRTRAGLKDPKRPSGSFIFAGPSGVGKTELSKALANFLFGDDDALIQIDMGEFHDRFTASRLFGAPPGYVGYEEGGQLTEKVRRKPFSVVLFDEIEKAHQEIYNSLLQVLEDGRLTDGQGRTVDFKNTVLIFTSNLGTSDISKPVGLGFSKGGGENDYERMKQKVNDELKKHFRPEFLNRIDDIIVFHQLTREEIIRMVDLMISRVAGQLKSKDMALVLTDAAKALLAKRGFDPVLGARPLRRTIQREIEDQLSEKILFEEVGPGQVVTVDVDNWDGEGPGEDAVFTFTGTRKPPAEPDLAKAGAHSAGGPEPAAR

ClpC1/P1/P2 complex = ClpC1/P1/P2 complex (Mycobacterium tuberculosis, UniProt P9WPC9); type: biochemical, M. tuberculosis
Sequence of ClpC1/P1/P2 complex (P9WPC9 whole entry, one chain of several): as the sequence (P9WPC9 whole entry) above

in vivo = experiment: in vivo; design: species or system BALB/c mice; details: mice, single i.v. 5 mg/kg
Protocol: Healthy female BALB/c mice were administered a single dose (5 mg/kg) of RUFI intravenously (i.v.; tail vein). RUFI was formulated using 10% ethanol (EtOH), 40% 10% (2-hydroxypropyl)-β-cyclodextrin (HP-β-CD) solution, and 50% PEG 400. RUFI was first dissolved in 0.102 ml of EtOH, vortexed and sonicated until clear, and then diluted with 0.508 ml of PEG 400 with additional vortex treatment and sonication until clear. Finally, 0.406 ml of 10% HP-β-CD was added to the solution. Then 20 μl of this formulation was pipetted into a 10-ml volumetric flask, and methanol (MeOH) was added to a final concentration of 1 mg/ml. The accuracy of the formulation concentration was verified via high-performance liquid chromatography-tandem mass spectrometry (HPLC-MS/MS) (AB Sciex 6500+; SCIEX, Framingham, MA) by electrospray using multiple reaction monitoring (MRM; 1065.63/1047.70) in positive ion mode. LC was performed with a Kinetex EVO C18 column (50 mm by 3.00 mm [inside diameter], 2.6-μm particle size, 100-Å pore size) using a gradient of 0.1% formic acid (FA) in water–0.1% FA in acetonitrile (ACN) (25% ACN to 95% ACN in 1.5 min) at a flow rate of 0.8 ml/min.
Blood samples (10 μl) were collected via saphenous vein puncture at 5, 15, and 30 min and 1, 2, 4, 8, and 25 h. […] A standard curve was determined by using RUFI spiked into untreated mouse plasma.

`C/C=C/C[C@@H]1NC(=O)[C@H](CC(C)C)N2C(=O)C(C[C@H](C)[C@H]2O)N(C)C(=O)[C@H](C)NC(=O)[C@H](Cc2ccc(O)c([N+](=O)[O-])c2)NC(=O)[C@H](CC(C)C)N(C)C(=O)[C@H](Cc2cn(C(C)(C)C3CO3)c3ccccc23)NC1=O` (stereo partly shown) [RUFI, rufomycin I] showed an MIC [1] of 0.02 µM (≈ 0.0208 µg/mL), an MIC ([1]; read-out: MIC against M. tuberculosis) of 0.01 µM (≈ 0.0104 µg/mL) and an MIC [2] of 0.003 to 0.011 µM (≈ 0.00313 to 0.0115 µg/mL). The MIC [3] was greater than 10 µM, the MIC [4] was greater than 10 µM and the MIC [5] was greater than 10 µM. For the same molecule, the MIC [6] was 0.073 µM (≈ 0.0761 µg/mL), the MIC ([7]; M. abscessus) was 0.42 µM (≈ 0.438 µg/mL) and the MIC ([7]; Mycobacteroides abscessus, ATCC19977, M. abscessus) was 0.4 µM (≈ 0.417 µg/mL). For the same molecule, the MIC (M. chelonae (ATCC 35752)) was 4.24 µM (≈ 4.42 µg/mL), the MIC (M. marinum (ATCC 927)) was less than 0.02 µM and the MIC (M. bovis (ATCC 35734)) was less than 0.02 µM. It also gave an MIC (M. kansasii (ATCC 12478)) of 0.04 µM (≈ 0.0417 µg/mL), an MIC (M. avium (ATCC 15769)) of 1.75 µM (≈ 1.82 µg/mL) and an IC50 (Vero cell (ATCC CRL-81)) greater than 50 µM. The IC50 [8] was 13 µM, the MBC [9] was “lacks this activity” and the MIC ([9]; Mycobacterium tuberculosis) was greater than 10 µM. For the same molecule, the inhibition at 10 µM ([9]; Mycobacterium tuberculosis) was 75%, the “activity against M. tuberculosis in murine macrophages (CFU)” value [10] was “even more potent than rifampin” and the “activity against M. abscessus in BMDMs (CFU)” value [11] was “as effective as clarithromycin”. For the same molecule, the “effect on ClpC1 ATPase activity” value (ClpC1) was “no significant effect; also recorded: mild and insignificant inhibitory effect”, the “effect on proteolytic activity of ClpC1/P1/P2 (FITC-casein degradation)” value (ClpC1/P1/P2 complex) was “significantly decreased the proteolytic capabilities; also recorded: strongly inhibited” and the half-life (in vivo; female, BALB/c, mouse, in vivo, iv, plasma, mean n = 3, read-out: terminal half-life (converted)) was 1 h. The clinical abnormalities (in vivo) was “no clinical abnormalities observed”.
